The text below walks through data of patent US11780901B2, “Analogues of parathyroid hormone (1-34) that function as agonists of the parathyroid hormone receptor-1 and display modified activity profiles” (Wisconsin Alumni Research Foundation, priority 2013, dated 2023).

For assay [1], the target named is PTHR2 (Homo sapiens, UniProt P49190). In words: PTHR2 activation, cAMP production (GloSensor) in HEK293 cells. Conditions: for EC50: HEK-293 cells, GloSensor cAMP, read-out: EC50 (nM) of PTHR2 Activation; for PTHR2 Activation: Derivative EC50/PTH EC50: normalized to EC50 of PTH(1-34)-NH2 ([…] printed), cAMP production. Type of assay: cell-based. Set-up: expressed in transfected cells; key to PTHR2 Activation: Derivative EC50/PTH EC50: *** denotes poor tolerance of β amino acid for PTHR2 activation. The text has this: The assays employ HEK-293 cells that have been engineered to express the appropriate receptor. GloSensor-based detection of cAMP provides a read-out of receptor activation. […] (Carter, P. H. et al. Actions of the Small Molecule Ligands SW106 and AH-3960 on the Type-1 Parathyroid Hormone Receptor. Molecular Endocrinology 29, 307-321 (2015).)
Sequence of PTHR2 (P49190 25-550): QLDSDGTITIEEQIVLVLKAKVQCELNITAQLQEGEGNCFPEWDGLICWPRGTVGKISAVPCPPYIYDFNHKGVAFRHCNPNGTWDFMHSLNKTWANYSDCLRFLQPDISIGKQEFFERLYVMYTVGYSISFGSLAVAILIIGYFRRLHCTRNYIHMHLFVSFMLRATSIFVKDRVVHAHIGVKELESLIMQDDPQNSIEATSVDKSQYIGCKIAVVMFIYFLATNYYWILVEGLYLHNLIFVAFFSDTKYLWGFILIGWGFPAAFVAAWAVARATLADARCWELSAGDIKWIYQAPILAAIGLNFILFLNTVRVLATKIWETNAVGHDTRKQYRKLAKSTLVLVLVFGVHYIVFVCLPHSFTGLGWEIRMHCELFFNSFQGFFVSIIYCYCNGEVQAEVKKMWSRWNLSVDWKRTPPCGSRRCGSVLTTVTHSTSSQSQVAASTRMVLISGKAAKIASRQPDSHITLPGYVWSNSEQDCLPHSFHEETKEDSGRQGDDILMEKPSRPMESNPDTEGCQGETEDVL
FIGS. 10A and 10B depict dose-response curves of PTHR1 activation (FIG. 10A) and PTHR2 activation (FIG. 10B) in HEK293 cells stably expressing PTHR1 or PTHR2. For PTHR1 activation and all the binding data, data represent mean±s.e.m from three independent measurements; For PTHR2 activation, data represent mean±s.e.m from four independent measurements. Curves were fit to the data using a four-parameter sigmoidal dose-response equation.

The target in assay [2] is T1, PTHR1 (Homo sapiens, UniProt Q03431).
T1 sequence (Q03431 27-593): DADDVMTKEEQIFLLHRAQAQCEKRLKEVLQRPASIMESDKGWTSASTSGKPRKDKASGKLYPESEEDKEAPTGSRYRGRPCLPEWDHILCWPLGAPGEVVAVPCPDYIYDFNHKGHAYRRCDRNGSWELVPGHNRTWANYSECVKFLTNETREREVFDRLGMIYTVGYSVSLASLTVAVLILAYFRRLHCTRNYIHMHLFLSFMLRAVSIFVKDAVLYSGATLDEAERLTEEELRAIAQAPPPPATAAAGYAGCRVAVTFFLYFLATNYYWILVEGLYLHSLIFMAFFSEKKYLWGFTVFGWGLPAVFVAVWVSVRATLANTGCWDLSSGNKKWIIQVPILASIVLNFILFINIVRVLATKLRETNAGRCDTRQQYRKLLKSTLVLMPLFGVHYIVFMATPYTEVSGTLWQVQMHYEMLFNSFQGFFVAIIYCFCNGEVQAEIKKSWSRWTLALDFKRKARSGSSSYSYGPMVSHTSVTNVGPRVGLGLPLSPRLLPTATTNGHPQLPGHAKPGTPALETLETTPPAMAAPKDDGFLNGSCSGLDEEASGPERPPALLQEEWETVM
Kind of assay: PTHR1 activation, cAMP production (GloSensor) in HEK293 cells. Set-up: expressed in transfected cells. To be noted: for PTHR1 Activation: Derivative EC50/PTH EC50: normalized to EC50 of PTH(1-34)-NH2 ([…]), cAMP production. In kind it is cell-based. From the text: The assays employ HEK-293 cells that have been engineered to express the appropriate receptor. GloSensor-based detection of cAMP provides a read-out of receptor activation.
For PTHR1 activation and all the binding data, data represent mean±s.e.m from three independent measurements; For PTHR2 activation, data represent mean±s.e.m from four independent measurements. Curves were fit to the data using a four-parameter sigmoidal dose-response equation.
For cAMP dose-response assays, monolayers of confluent HEK 293 cells were pre-incubated with buffer containing d-luciferin (0.5 mM) in 96 well plates at room temperature until a stable baseline level of luminescence was established (30 min). Varying concentrations of agonist were then added, and the time course of luminescence response was recorded using a Perkin Elmer plate reader following α/β-peptide addition.
On the technique in general: Changes in cAMP serve as a functional read-out for many G protein-coupled receptors.

Setting [3] is: HEK-293 cells, GloSensor cAMP, read-out: EC50 (nM) of PTHR1 Activation.
Setting [4] is: Table 8, hPTHR1, read-out: PTHR1 EC50.

Read-outs that look alike come from different tables or passages of the source. Starred links: 1 amine or outer side, 2 acyl side, 3 side chain; linkers in the order of their positions; H or OH if unused. Non-standard residues stand in square brackets, D forms with d. Residues, ends and D or L forms follow the SMILES beside them. *: point of attachment. X4 = O=C(O)CC[C@@H](CN[*:1])C(=O)[*:2]; X6 = O=C(O)CC[C@H](CN[*:1])C(=O)[*:2]; X8 = NC[C@@H](CO)C(=O)*

In general, EC50 refers to the concentration at which the effect is half-maximal. Take `CC[C@H](C)[C@H](NC(=O)[C@H](CCC(=O)O)NC(=O)[C@H](CO)NC(=O)[C@H](CNC(=O)[C@@H](N)CO)C(C)C)C(=O)N[C@@H](CCC(N)=O)C(=O)N[C@@H](CC(C)C)C(=O)N[C@@H](CCSC)C(=O)N[C@@H](Cc1c[nH]cn1)C(=O)N[C@@H](CC(N)=O)C(=O)N[C@@H](CC(C)C)C(=O)NCC(=O)N[C@@H](CCCCN)C(=O)N[C@@H](Cc1c[nH]cn1)C(=O)N[C@@H](CC(C)C)C(=O)N[C@@H](CC(N)=O)C(=O)N[C@@H](CO)C(=O)N[C@@H](CCSC)C(=O)N[C@@H](CCC(=O)O)C(=O)N[C@@H](CCCNC(=N)N)C(=O)N[C@H](C(=O)N[C@@H](CCC(=O)O)C(=O)N[C@@H](Cc1c[nH]c2ccccc12)C(=O)N[C@@H](CC(C)C)C(=O)N[C@@H](CCCNC(=N)N)C(=O)N[C@@H](CCCCN)C(=O)N[C@@H](CCCCN)C(=O)N[C@@H](CC(C)C)C(=O)N[C@@H](CCC(N)=O)C(=O)N[C@@H](CC(=O)O)C(=O)N[C@H](C(=O)N[C@@H](Cc1c[nH]cn1)C(=O)N[C@@H](CC(N)=O)C(=O)N[C@@H](Cc1ccccc1)C(N)=O)C(C)C)C(C)C` [SEQ. ID. NO: 31]: the EC50 was 4.72 ± 1.04 nM in assay [1], 6.97 ± 1 nM in assay [2] (setting [3]) and 4.72 ± 1.04 nM in assay [2] (setting [4]). Further, the “PTHR2 Activation: Derivative EC50/PTH EC50” value in assay [1] was 5.43. In addition, in assay [2], the “PTHR1 Activation: Derivative EC50/PTH EC50” value is given as 18.34.

For `CC[C@H](C)[C@H](NC(=O)[C@H](CCC(=O)O)NC(=O)[C@H](CO)NC(=O)[C@@H](NC(=O)[C@@H](CN)CO)C(C)C)C(=O)N[C@@H](CCC(N)=O)C(=O)N[C@@H](CC(C)C)C(=O)N[C@@H](CCSC)C(=O)N[C@@H](Cc1c[nH]cn1)C(=O)N[C@@H](CC(N)=O)C(=O)N[C@@H](CC(C)C)C(=O)NCC(=O)N[C@@H](CCCCN)C(=O)N[C@@H](Cc1c[nH]cn1)C(=O)N[C@@H](CC(C)C)C(=O)N[C@@H](CC(N)=O)C(=O)N[C@@H](CO)C(=O)N[C@@H](CCSC)C(=O)N[C@@H](CCC(=O)O)C(=O)N[C@@H](CCCNC(=N)N)C(=O)N[C@H](C(=O)N[C@@H](CCC(=O)O)C(=O)N[C@@H](Cc1c[nH]c2ccccc12)C(=O)N[C@@H](CC(C)C)C(=O)N[C@@H](CCCNC(=N)N)C(=O)N[C@@H](CCCCN)C(=O)N[C@@H](CCCCN)C(=O)N[C@@H](CC(C)C)C(=O)N[C@@H](CCC(N)=O)C(=O)N[C@@H](CC(=O)O)C(=O)N[C@H](C(=O)N[C@@H](Cc1c[nH]cn1)C(=O)N[C@@H](CC(N)=O)C(=O)N[C@@H](Cc1ccccc1)C(N)=O)C(C)C)C(C)C` [SEQ. ID. NO: 22] (X8-VSEIQLMHNLGKHLNSMERVEWLRKKLQDVHNF-NH2), the EC50 in assay [1] is 5.97 ± 1.21 nM; in assay [2] (setting [3]), 0.35 ± 0.06 nM.

Turning to `CC[C@H](C)[C@H](NC(=O)[C@H](CCC(=O)O)NC(=O)[C@H](CO)NC(=O)[C@@H](NC(=O)[C@@H](N)CO)C(C)C)C(=O)N[C@@H](CCC(N)=O)C(=O)N[C@@H](CC(C)C)C(=O)N[C@@H](CCSC)CC(=O)N[C@@H](Cc1cnc[nH]1)C(=O)N[C@@H](CC(N)=O)C(=O)N[C@@H](CC(C)C)C(=O)NCC(=O)N[C@@H](CCCCN)C(=O)N[C@@H](Cc1cnc[nH]1)C(=O)N[C@@H](CC(C)C)C(=O)N[C@@H](CC(N)=O)C(=O)N[C@@H](CO)C(=O)N[C@@H](CCSC)C(=O)N[C@@H](CCC(=O)O)C(=O)N[C@@H](CCCNC(=N)N)C(=O)N[C@H](C(=O)N[C@@H](CCC(=O)O)C(=O)N[C@@H](Cc1c[nH]c2ccccc12)C(=O)N[C@@H](CC(C)C)C(=O)N[C@@H](CCCNC(=N)N)C(=O)N[C@@H](CCCCN)C(=O)N[C@@H](CCCCN)C(=O)N[C@@H](CC(C)C)C(=O)N[C@@H](CCC(N)=O)C(=O)N[C@@H](CC(=O)O)C(=O)N[C@H](C(=O)N[C@@H](Cc1cnc[nH]1)C(=O)N[C@@H](CC(N)=O)C(=O)N[C@@H](Cc1ccccc1)C(N)=O)C(C)C)C(C)C` [SEQ. ID. NO: 45], the EC50 in assay [1] is more than 100 nM; in assay [2] (setting [3]), 21 ± 2.3 nM.

For the compound `CC[C@H](C)[C@H](NC(=O)[C@H](CCC(=O)O)CNC(=O)[C@H](CO)NC(=O)[C@@H](NC(=O)[C@@H](N)CO)C(C)C)C(=O)N[C@@H](CCC(N)=O)C(=O)N[C@@H](CC(C)C)C(=O)N[C@@H](CCSC)C(=O)N[C@@H](Cc1c[nH]cn1)C(=O)N[C@@H](CC(N)=O)C(=O)N[C@@H](CC(C)C)C(=O)NCC(=O)N[C@@H](CCCCN)C(=O)N[C@@H](Cc1c[nH]cn1)C(=O)N[C@@H](CC(C)C)C(=O)N[C@@H](CC(N)=O)C(=O)N[C@@H](CO)C(=O)N[C@@H](CCSC)C(=O)N[C@@H](CCC(=O)O)C(=O)N[C@@H](CCCNC(=N)N)C(=O)N[C@H](C(=O)N[C@@H](CCC(=O)O)C(=O)N[C@@H](Cc1c[nH]c2ccccc12)C(=O)N[C@@H](CC(C)C)C(=O)N[C@@H](CCCNC(=N)N)C(=O)N[C@@H](CCCCN)C(=O)N[C@@H](CCCCN)C(=O)N[C@@H](CC(C)C)C(=O)N[C@@H](CCC(N)=O)C(=O)N[C@@H](CC(=O)O)C(=O)N[C@H](C(=O)N[C@@H](Cc1c[nH]cn1)C(=O)N[C@@H](CC(N)=O)C(=O)N[C@@H](Cc1ccccc1)C(N)=O)C(C)C)C(C)C` [SEQ. ID. NO: 25] (H-SVS[X6]IQLMHNLGKHLNSMERVEWLRKKLQDVHNF-NH2; N-terminus assumed), in assay [1], the EC50 is more than 1000 nM and the “PTHR2 Activation: Derivative EC50/PTH EC50” value was “***”. For the same compound, the EC50 in assay [2] (setting [3]) is 22.9 ± 1.89 nM. Further, the “PTHR1 Activation: Derivative EC50/PTH EC50” value in assay [2] turned out to be 60.26.

With `CC[C@H](C)[C@H](NC(=O)[C@@H](CCC(=O)O)CNC(=O)[C@H](CO)NC(=O)[C@@H](NC(=O)[C@@H](N)CO)C(C)C)C(=O)N[C@@H](CCC(N)=O)C(=O)N[C@@H](CC(C)C)C(=O)N[C@@H](CCSC)C(=O)N[C@@H](Cc1c[nH]cn1)C(=O)N[C@@H](CC(N)=O)C(=O)N[C@@H](CC(C)C)C(=O)NCC(=O)N[C@@H](CCCCN)C(=O)N[C@@H](Cc1c[nH]cn1)C(=O)N[C@@H](CC(C)C)C(=O)N[C@@H](CC(N)=O)C(=O)N[C@@H](CO)C(=O)N[C@@H](CCSC)C(=O)N[C@@H](CCC(=O)O)C(=O)N[C@@H](CCCNC(=N)N)C(=O)N[C@H](C(=O)N[C@@H](CCC(=O)O)C(=O)N[C@@H](Cc1c[nH]c2ccccc12)C(=O)N[C@@H](CC(C)C)C(=O)N[C@@H](CCCNC(=N)N)C(=O)N[C@@H](CCCCN)C(=O)N[C@@H](CCCCN)C(=O)N[C@@H](CC(C)C)C(=O)N[C@@H](CCC(N)=O)C(=O)N[C@@H](CC(=O)O)C(=O)N[C@H](C(=O)N[C@@H](Cc1c[nH]cn1)C(=O)N[C@@H](CC(N)=O)C(=O)N[C@@H](Cc1ccccc1)C(N)=O)C(C)C)C(C)C` [SEQ. ID. NO: 33] (H-SVS[X4]IQLMHNLGKHLNSMERVEWLRKKLQDVHNF-NH2; N-terminus assumed), the EC50 was more than 100 nM in assay [1], 10.8 ± 0.47 nM in assay [2] (setting [3]) and more than 100 nM in assay [2] (setting [4]). Also, the “PTHR2 Activation: Derivative EC50/PTH EC50” value in assay [1] was “***”. Besides, the “PTHR1 Activation: Derivative EC50/PTH EC50” value in assay [2] was found to be 28.42.

As to `CC[C@H](C)[C@H](NC(=O)C[C@H](CCC(=O)O)NC(=O)[C@H](CO)NC(=O)[C@@H](NC(=O)[C@@H](N)CO)C(C)C)C(=O)N[C@@H](CCC(N)=O)C(=O)N[C@@H](CC(C)C)C(=O)N[C@@H](CCSC)C(=O)N[C@@H](Cc1c[nH]cn1)C(=O)N[C@@H](CC(N)=O)C(=O)N[C@@H](CC(C)C)C(=O)NCC(=O)N[C@@H](CCCCN)C(=O)N[C@@H](Cc1c[nH]cn1)C(=O)N[C@@H](CC(C)C)C(=O)N[C@@H](CC(N)=O)C(=O)N[C@@H](CO)C(=O)N[C@@H](CCSC)C(=O)N[C@@H](CCC(=O)O)C(=O)N[C@@H](CCCNC(=N)N)C(=O)N[C@H](C(=O)N[C@@H](CCC(=O)O)C(=O)N[C@@H](Cc1c[nH]c2ccccc12)C(=O)N[C@@H](CC(C)C)C(=O)N[C@@H](CCCNC(=N)N)C(=O)N[C@@H](CCCCN)C(=O)N[C@@H](CCCCN)C(=O)N[C@@H](CC(C)C)C(=O)N[C@@H](CCC(N)=O)C(=O)N[C@@H](CC(=O)O)C(=O)N[C@H](C(=O)N[C@@H](Cc1c[nH]cn1)C(=O)N[C@@H](CC(N)=O)C(=O)N[C@@H](Cc1ccccc1)C(N)=O)C(C)C)C(C)C` [SEQ. ID. NO: 41], the concentration giving a half-maximal response (EC50) in assay [1] is 60.1 ± 9.82 nM.
